What follows are compounds tested against T1, human vasopressin V2 receptor subtype (Homo sapiens, UniProt P30518) (assay: Vasopressin binding in Chinese Hamster Ovary cell membranes expressing human vasopressin V2 subtype receptors). Details: 100 nM, CHO cell membranes, [3H]arginine vasopressin, values without parentheses.
T1 construct: host or cells: CHO cells (pZeoSV vector)
T1 sequence (P30518 whole entry): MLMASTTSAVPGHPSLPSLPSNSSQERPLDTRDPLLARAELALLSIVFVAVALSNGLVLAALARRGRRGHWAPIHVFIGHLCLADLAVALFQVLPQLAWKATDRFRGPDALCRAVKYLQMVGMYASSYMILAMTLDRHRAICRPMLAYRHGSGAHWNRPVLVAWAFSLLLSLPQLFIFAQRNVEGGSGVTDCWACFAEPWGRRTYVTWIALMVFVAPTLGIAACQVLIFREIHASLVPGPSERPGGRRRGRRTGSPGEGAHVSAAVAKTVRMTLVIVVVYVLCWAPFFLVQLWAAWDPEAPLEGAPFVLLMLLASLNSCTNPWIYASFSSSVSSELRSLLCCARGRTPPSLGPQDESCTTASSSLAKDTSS
Procedure, shortened: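 Radioligand displacement on membranes from CHO cells stably expressing human V2 receptor, 25 to 50 μg protein/well, in 50 mM Tris-HCl pH 7.4 with MgCl2, BSA and protease inhibitors. [^3H]arginine vasopressin (8 nM working solution) incubated 60 min at room temperature; bound label measured by filtration and scintillation counting.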
In the case of `Cc1cc(C(=O)N2Cc3ccc(C(=O)N4CCN(C(=O)OC(C)(C)C)CC4)n3Cc3ccccc32)ccc1-c1ccccc1C(F)(F)F` [Example 6, 4-[[10,11-Dihydro-10-[[2-methyl-2′-trifluoromethyl[1,1′-biphenyl]-4-yl]carbonyl]-5H-pyrrolo[2,1-c][1,4]benzodiazepin-3-yl]carbonyl]-1-piperazine-carboxylic acid, tert-butyl ester], the inhibition at 0.1 µM was 13%. `COc1cccc(-c2cc(OC)c(C(=O)N3Cc4ccc(C(=O)NCCN5CCCCC5)n4Cc4ccccc43)cc2Cl)c1` [Example 156, 10-[(6-Chloro-3,3′-dimethoxy[1,1′-biphenyl]-4-yl)carbonyl]-N-[2-(1-piperidinyl)ethyl]-10,11-dihydro-5H-pyrrolo[2,1-c][1,4]benzodiazepine-3-carboxamide] showed an inhibition at 0.1 µM of 12%. `COc1cc(C(=O)N2Cc3ccc(C(=O)NCCN4CCCCC4)n3Cc3ccccc32)ccc1-c1cccc2ccccc12` [Example 157, 10-[3-Methoxy-4-(1-naphthyl)benzoyl]-N-[2-(1-piperidinyl)ethyl]-10,11-dihydro-5H-pyrrolo[2,1-c][1,4]benzodiazepine-3-carboxamide] was tested, and the inhibition at 0.1 µM was 23%. For `COc1ccccc1-c1ccc(C(=O)N2Cc3ccc(C(=O)NCCN4CCCCC4)n3Cc3ccccc32)cc1OC` [Example 158, 10-[(2,2′-Dimethoxy[1,1′-biphenyl]-4-yl)carbonyl]-N-[2-(1-piperidinyl)ethyl]-10,11-dihydro-5H-pyrrolo[2,1-c][1,4]benzodiazepine-3-carboxamide], the inhibition at 0.1 µM was 19%. In the case of `COc1cccc(-c2ccc(C(=O)N3Cc4ccc(C(=O)NCCN5CCCCC5)n4Cc4ccccc43)cc2OC)c1` [Example 159, 10-[(2,3′-Dimethoxy[1,1′-biphenyl]-4-yl)carbonyl]-N-[2-(1-piperidinyl)ethyl]-10,11-dihydro-5H-pyrrolo[2,1-c][1,4]benzodiazepine-3-carboxamide], the inhibition at 0.1 µM was 16%. In the case of `O=C(NCCN1CCCCC1)c1ccc2n1Cc1ccccc1N(C(=O)c1ccc(-c3cccc4ccccc34)cc1Cl)C2` [Example 160, 10-[2-Chloro-4-(1-naphthyl)benzoyl]-N-[2-(1-piperidinyl)ethyl]-10,11-dihydro-5H-pyrrolo[2,1-c][1,4]benzodiazepine-3-carboxamide], the inhibition at 0.1 µM was 24%. `Cc1cc(C(=O)N2Cc3ccc(C(=O)NCCN4CCCCC4)n3Cc3ccccc32)ccc1-c1ccccc1C(F)(F)F` [Example 161, 10-{[2-Methyl-2′-(trifluoromethyl)[1,1′-biphenyl]-4-yl]carbonyl}-N-[2-(1-piperidinyl)ethyl]-10,11-dihydro-5H-pyrrolo[2,1-c][1,4]benzodiazepine-3-carboxamide] showed an inhibition at 0.1 µM of 4%. `COc1ccccc1-c1ccc(C(=O)N2Cc3ccc(C(=O)NCCC4CCCN4C)n3Cc3ccccc32)cc1C` (stereo not shown) [Example 162, 10-[(2′-Methoxy-2-methyl[1,1′-biphenyl]-4-yl)carbonyl]-N-[2-(1-methyl-2-pyrrolidinyl)ethyl]-10,11-dihydro-5H-pyrrolo[2,1-c][1,4]benzodiazepine-3-carboxamide] was tested, and the inhibition at 0.1 µM was 20%. With `Cc1ccccc1-c1ccc(C(=O)N2Cc3ccc(C(=O)NCCC4CCCN4C)n3Cc3ccccc32)cc1C` (stereo not shown) [Example 163, 10-[(2,2′-Dimethyl[1,1′-biphenyl]-4-yl)carbonyl]-N-[2-(1-methyl-2-pyrrolidinyl)ethyl]-10,11-dihydro-5H-pyrrolo[2,1-c][1,4]benzodiazepine-3-carboxamide] the inhibition at 0.1 µM was 13%. `COc1ccccc1-c1ccc(C(=O)N2Cc3ccc(C(=O)NCCC4CCCN4C)n3Cc3ccccc32)cc1` (stereo not shown) [Example 165, 10-[(2′-Methoxy[1,1′-biphenyl]-4-yl)carbonyl]-N-[2-(1-methyl-2-pyrrolidinyl)ethyl]-10,11-dihydro-5H-pyrrolo[2,1-c][1,4]benzodiazepine-3-carboxamide] showed an inhibition at 0.1 µM of 25%. `Cc1ccccc1-c1ccc(C(=O)N2Cc3ccc(C(=O)NCCC4CCCN4C)n3Cc3ccccc32)cc1` (stereo not shown) [Example 166, 10-[(2′-Methyl[1,1′-biphenyl]-4-yl)carbonyl]-N-[2-(1-methyl-2-pyrrolidinyl)ethyl]-10,11-dihydro-5H-pyrrolo[2,1-c][1,4]benzodiazepine-3-carboxamide] was tested, and the inhibition at 0.1 µM was 3%. `COc1cc(C(=O)N2Cc3ccc(C(=O)NCCC4CCCN4C)n3Cc3ccccc32)ccc1-c1ccccc1C` (stereo not shown) [Example 167, 10-[(2-Methoxy-2′-methyl[1,1′-biphenyl]-4-yl)carbonyl]-N-[2-(1-methyl-2-pyrrolidinyl)ethyl]-10,11-dihydro-5H-pyrrolo[2,1-c][1,4]benzodiazepine-3-carboxamide] was tested, and the inhibition at 0.1 µM was 20%. `COc1cc(-c2ccccc2C)c(Cl)cc1C(=O)N1Cc2ccc(C(=O)NCCC3CCCN3C)n2Cc2ccccc21` (stereo not shown) [Example 168, 10-[(6-Chloro-3-methoxy-2′-methyl[1,1′-biphenyl]-4-yl)carbonyl]-N-[2-(1-methyl-2-pyrrolidinyl)ethyl]-10,11-dihydro-5H-pyrrolo[2,1-c][1,4]benzodiazepine-3-carboxamide] was tested, and the inhibition at 0.1 µM was 10%. With `COc1cccc(-c2cc(OC)c(C(=O)N3Cc4ccc(C(=O)NCCC5CCCN5C)n4Cc4ccccc43)cc2Cl)c1` (stereo not shown) [Example 169, 10-[(6-Chloro-3,3′-dimethoxy[1,1′-biphenyl]-4-yl)carbonyl]-N-[2-(1-methyl-2-pyrrolidinyl)ethyl]-10,11-dihydro-5H-pyrrolo[2,1-c][1,4]benzodiazepine-3-carboxamide] the inhibition at 0.1 µM was 5%. Work on `COc1cc(C(=O)N2Cc3ccc(C(=O)NCCC4CCCN4C)n3Cc3ccccc32)ccc1-c1cccc2ccccc12` (stereo not shown) [Example 170, 10-[3-Methoxy-4-(1-naphthyl)benzoyl]-N-[2-(1-methyl-2-pyrrolidinyl)ethyl]-10,11-dihydro-5H-pyrrolo[2,1-c][1,4]benzodiazepine-3-carboxamide] yielded an inhibition at 0.1 µM of 27%. For `COc1ccccc1-c1ccc(C(=O)N2Cc3ccc(C(=O)NCCC4CCCN4C)n3Cc3ccccc32)cc1OC` (stereo not shown) [Example 171, 10-[(2,2′-Dimethoxy[1,1′-biphenyl]-4-yl)carbonyl]-N-[2-(1-methyl-2-pyrrolidinyl)ethyl]-10,11-dihydro-5H-pyrrolo[2,1-c][1,4]benzodiazepine-3-carboxamide], the inhibition at 0.1 µM was 14%. In the case of `COc1cccc(-c2ccc(C(=O)N3Cc4ccc(C(=O)NCCC5CCCN5C)n4Cc4ccccc43)cc2OC)c1` (stereo not shown) [Example 172, 10-[(2,3′-Dimethoxy[1,1′-biphenyl]-4-yl)carbonyl]-N-[2-(1-methyl-2-pyrrolidinyl)ethyl]-10,11-dihydro-5H-pyrrolo[2,1-c][1,4]benzodiazepine-3-carboxamide], the inhibition at 0.1 µM was 11%. `CN1CCCC1CCNC(=O)c1ccc2n1Cc1ccccc1N(C(=O)c1ccc(-c3cccc4ccccc34)cc1Cl)C2` (stereo not shown) [Example 173, 10-[2-Chloro-4-(1-naphthyl)benzoyl]-N-[2-(1-methyl-2-pyrrolidinyl)ethyl]-10,11-dihydro-5H-pyrrolo[2,1-c][1,4]benzodiazepine-3-carboxamide] showed an inhibition at 0.1 µM of 17%. `Cc1cc(C(=O)N2Cc3ccc(C(=O)NCCC4CCCN4C)n3Cc3ccccc32)ccc1-c1ccccc1C(F)(F)F` (stereo not shown) [Example 174, N-[2-(1-Methyl-2-pyrrolidinyl)ethyl]-10-{[2-methyl-2′-(trifluoromethyl)[1,1′-biphenyl]-4-yl]carbonyl}-10,11-dihydro-5H-pyrrolo[2,1-c][1,4]benzodiazepine-3-carboxamide] was tested, and the inhibition at 0.1 µM was 7%. `COc1ccccc1-c1ccc(C(=O)N2Cc3ccc(C(=O)N(C)C4CCN(C)CC4)n3Cc3ccccc32)cc1C` [Example 175, 10-[(2′-Methoxy-2-methyl[1,1′-biphenyl]-4-yl)carbonyl]-N-methyl-N-(1-methyl-4-piperidinyl)-10,11-dihydro-5H-pyrrolo[2,1-c][1,4]benzodiazepine-3-carboxamide] gave an inhibition at 0.1 µM of 17%. `COc1cccc(-c2ccc(C(=O)N3Cc4ccc(C(=O)N(C)C5CCN(C)CC5)n4Cc4ccccc43)cc2C)c1` [Example 176, 10-[(3′-Methoxy-2-methyl[1,1′-biphenyl]-4-yl)carbonyl]-N-methyl-N-(1-methyl-4-piperidinyl)-10,11-dihydro-5H-pyrrolo[2,1-c][1,4]benzodiazepine-3-carboxamide] gave an inhibition at 0.1 µM of 18%. `COc1ccccc1-c1ccc(C(=O)N2Cc3ccc(C(=O)N(C)C4CCN(C)CC4)n3Cc3ccccc32)cc1` [Example 177, 10-[(2′-Methoxy[1,1′-biphenyl]-4-yl)carbonyl]-N-methyl-N-(1-methyl-4-piperidinyl)-10,11-dihydro-5H-pyrrolo[2,1-c][1,4]benzodiazepine-3-carboxamide] showed an inhibition at 0.1 µM of 18%. Compound `Cc1ccccc1-c1ccc(C(=O)N2Cc3ccc(C(=O)N(C)C4CCN(C)CC4)n3Cc3ccccc32)cc1` [Example 178, N-Methyl-10-[(2′-methyl[1,1′-biphenyl]-4-yl)carbonyl]-N-(1-methyl-4-piperidinyl)-10,11-dihydro-5H-pyrrolo[2,1-c][1,4]benzodiazepine-3-carboxamide] has an inhibition at 0.1 µM of 15%. Compound `COc1cc(C(=O)N2Cc3ccc(C(=O)N(C)C4CCN(C)CC4)n3Cc3ccccc32)ccc1-c1ccccc1C` [Example 179, 10-[(2-Methoxy-2′-methyl[1,1′-biphenyl]-4-yl)carbonyl]-N-methyl-N-(1-methyl-4-piperidinyl)-10,11-dihydro-5H-pyrrolo[2,1-c][1,4]benzodiazepine-3-carboxamide] has an inhibition at 0.1 µM of 23%. `COc1cc(-c2ccccc2C)c(Cl)cc1C(=O)N1Cc2ccc(C(=O)N(C)C3CCN(C)CC3)n2Cc2ccccc21` [Example 180, 10-[(6-Chloro-3-methoxy-2′-methyl[1,1′-biphenyl]-4-yl)carbonyl]-N-methyl-N-(1-methyl-4-piperidinyl)-10,11-dihydro-5H-pyrrolo[2,1-c][1,4]benzodiazepine-3-carboxamide] gave an inhibition at 0.1 µM of 14%.
